Assay results: paper PMC9306968, “A structural homologue of the plant receptor D14 mediates responses to strigolactones in the fungal phytopathogen Cryphonectria parasitica” (The New Phytologist, 2022)

Experiments:
CpD14 = assay: intrinsic tryptophan fluorescence titration; UPLC hydrolysis assay; denaturing ESI-MS covalent adduct; assay type: binding, Cryphonectria parasitica
Excerpt: intrinsic tryptophan fluorescence titration; UPLC hydrolysis assay; denaturing ESI-MS covalent adduct on CpD14 | The interaction between (+)‐GR24 and CpD14 was confirmed using tryptophan intrinsic fluorescence assay

RMS3/PsD14 = molecular target: T1, RMS3/PsD14 (Lathyrus oleraceus, UniProt A0A109QYD3); assay: intrinsic tryptophan fluorescence titration (also nanoDSF and UPLC hydrolysis assay); assay type: binding
T1 sequence (A0A109QYD3 1-267): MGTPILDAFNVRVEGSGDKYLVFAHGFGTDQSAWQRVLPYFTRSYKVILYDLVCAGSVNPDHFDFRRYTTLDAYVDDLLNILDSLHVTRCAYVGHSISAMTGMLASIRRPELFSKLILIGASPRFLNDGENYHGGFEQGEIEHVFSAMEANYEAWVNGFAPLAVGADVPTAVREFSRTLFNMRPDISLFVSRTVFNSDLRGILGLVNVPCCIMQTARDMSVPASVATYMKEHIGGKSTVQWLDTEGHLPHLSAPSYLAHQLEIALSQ

Compound: CC1=C[C@H](O/C=C2/C(=O)O[C@@H]3c4ccccc4C[C@H]23)OC1=O [(+)-GR24]
- Kd (CpD14): 203 ± 41.1 µM
- Kd (RMS3/PsD14): 9.33 ± 4.27 µM
